Laboratory results: ChEMBL document CHEMBL1201862, “PubChem BioAssay data set” (2004)
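Where inhibition never reached the appropriate level, the endpoint shown equals the highest concentration tested. Otherwise, values were interpolated linearly from a five-concentration, 48-hour dose response in 96-well plates. GI50 is the concentration that inhibits growth by half.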 The source made the active and inactive calls. Cut-off read from the data, not from the text of the source: active = GI50 up to about 1.1 µM and inactive = higher.

Columns and labels:
Assay in all cases: growth of human tumour cells (NCI), 48 h
[1] = system: BT-549
[2] = system: U-251
[3] = system: KM12
[4] = system: EKVX
[5] = system: HOP-62
[6] = system: HOP-92
[7] = system: OVCAR-5
[8] = system: UACC-257
[9] = system: SF-268
[10] = system: NCI-H522
[11] = system: A549
[12] = system: SF-295
[13] = system: SNB-19
[14] = system: Malme-3M
[15] = system: T47D
[16] = system: NCI-H460
[17] = system: MDA-MB-231
[18] = system: CAKI-1
[19] = system: RXF 393
[20] = system: HT-29
[21] = system: K562
[22] = system: DU-145
[23] = system: OVCAR-4
[24] = system: SN12C
[25] = system: UO-31
[26] = system: HCT-15
[27] = system: IGROV-1
[28] = system: LOX IMVI
[29] = system: Hs-578T
[30] = system: MOLT-4
[31] = system: NCI-H226
[32] = system: MDA-MB-435
[33] = system: ACHN
[34] = system: SR
[35] = system: TK-10
[36] = system: SW-620
[37] = system: M14
[38] = system: A498
[39] = system: UACC-62
[40] = system: MDA-N
[41] = system: SNB-75
[42] = system: PC-3
[43] = system: HCC 2998
[44] = system: 786-0
[45] = system: NCI/ADR-RES
[46] = system: SK-MEL-2
[47] = system: SK-MEL-5
[48] = system: OVCAR-3
[49] = system: NCI-H23
[50] = system: HCT-116
[51] = system: CCRF-CEM
[52] = system: SK-OV-3
[53] = system: SK-MEL-28
[54] = system: COLO 205
[55] = system: RPMI-8226
[56] = system: OVCAR-8

Measured: GI50

O=C1c2ccccc2C(=O)c2c(Nc3ccc4c5c(cccc35)C(=O)c3ccccc3-4)cccc21
> 100 µM: [26]
inactive: [1] > 100 µM | [2] > 100 µM | [3] > 100 µM | [4] > 100 µM | [5] > 100 µM | [6] > 100 µM | [7] > 100 µM | [8] > 100 µM | [9] > 100 µM | [10] > 100 µM | [11] > 100 µM | [12] > 100 µM | [13] > 100 µM | [14] > 100 µM | [15] > 100 µM | [16] > 100 µM | [17] > 100 µM | [18] > 100 µM | [19] > 100 µM | [20] > 100 µM | [21] > 100 µM | [22] > 100 µM | [23] > 100 µM | [24] > 100 µM | [25] > 100 µM | [27] 71.1 µM | [28] > 100 µM | [29] > 100 µM | [30] > 100 µM | [31] > 100 µM | [32] > 100 µM | [33] > 100 µM | [34] > 100 µM | [35] > 100 µM | [36] > 100 µM | [37] > 100 µM | [38] > 100 µM | [39] > 100 µM | [40] > 100 µM | [41] > 100 µM | [42] > 100 µM | [43] > 100 µM | [44] > 100 µM | [45] > 100 µM | [46] > 100 µM | [47] > 100 µM | [48] > 100 µM | [49] > 100 µM | [50] > 100 µM

O=S(=O)(O)c1cccc2c(/N=N/c3c(O)ccc4ccccc34)cccc12
> 100 µM: [26]
inactive: [1] > 100 µM | [2] > 100 µM | [3] > 100 µM | [4] > 100 µM | [5] > 100 µM | [6] > 100 µM | [7] > 100 µM | [51] > 100 µM | [8] > 100 µM | [9] > 100 µM | [52] > 100 µM | [10] > 100 µM | [53] > 100 µM | [11] > 100 µM | [12] > 100 µM | [13] > 100 µM | [54] > 100 µM | [14] > 100 µM | [15] > 100 µM | [17] > 100 µM | [18] > 100 µM | [19] > 100 µM | [20] > 100 µM | [21] > 100 µM | [22] > 100 µM | [23] > 100 µM | [24] > 100 µM | [25] > 100 µM | [27] > 100 µM | [28] > 100 µM | [29] > 100 µM | [30] > 100 µM | [31] > 100 µM | [55] > 100 µM | [56] > 100 µM | [32] > 100 µM | [33] > 100 µM | [34] > 100 µM | [35] > 100 µM | [36] > 100 µM | [37] > 100 µM | [38] > 100 µM | [39] > 100 µM | [40] > 100 µM | [41] > 100 µM | [42] > 100 µM | [44] > 100 µM | [45] > 100 µM | [46] > 100 µM | [47] 46.2 µM | [48] > 100 µM | [49] > 100 µM | [50] > 100 µM
